Laboratory results: patent US10829473B2, “Modulators of the cystic fibrosis transmembrane conductance regulator protein and methods of use” (AbbVie Overseas S.Á.R.L., priority 2017, dated 2020)
Read-outs that look alike come from different tables or passages of the source.

Molecular target: T1, F508delCFTR (Homo sapiens, UniProt P13569, DEL508-508)
T1 construct: expressed in transfected cells; host or cells: CFBE41o- human lung derived epithelial cells (CFBE41o-F508delCFTR-HRP), doxycycline-inducible
T1 sequence (P13569 with tags, fused parts or gaps DEL508-508): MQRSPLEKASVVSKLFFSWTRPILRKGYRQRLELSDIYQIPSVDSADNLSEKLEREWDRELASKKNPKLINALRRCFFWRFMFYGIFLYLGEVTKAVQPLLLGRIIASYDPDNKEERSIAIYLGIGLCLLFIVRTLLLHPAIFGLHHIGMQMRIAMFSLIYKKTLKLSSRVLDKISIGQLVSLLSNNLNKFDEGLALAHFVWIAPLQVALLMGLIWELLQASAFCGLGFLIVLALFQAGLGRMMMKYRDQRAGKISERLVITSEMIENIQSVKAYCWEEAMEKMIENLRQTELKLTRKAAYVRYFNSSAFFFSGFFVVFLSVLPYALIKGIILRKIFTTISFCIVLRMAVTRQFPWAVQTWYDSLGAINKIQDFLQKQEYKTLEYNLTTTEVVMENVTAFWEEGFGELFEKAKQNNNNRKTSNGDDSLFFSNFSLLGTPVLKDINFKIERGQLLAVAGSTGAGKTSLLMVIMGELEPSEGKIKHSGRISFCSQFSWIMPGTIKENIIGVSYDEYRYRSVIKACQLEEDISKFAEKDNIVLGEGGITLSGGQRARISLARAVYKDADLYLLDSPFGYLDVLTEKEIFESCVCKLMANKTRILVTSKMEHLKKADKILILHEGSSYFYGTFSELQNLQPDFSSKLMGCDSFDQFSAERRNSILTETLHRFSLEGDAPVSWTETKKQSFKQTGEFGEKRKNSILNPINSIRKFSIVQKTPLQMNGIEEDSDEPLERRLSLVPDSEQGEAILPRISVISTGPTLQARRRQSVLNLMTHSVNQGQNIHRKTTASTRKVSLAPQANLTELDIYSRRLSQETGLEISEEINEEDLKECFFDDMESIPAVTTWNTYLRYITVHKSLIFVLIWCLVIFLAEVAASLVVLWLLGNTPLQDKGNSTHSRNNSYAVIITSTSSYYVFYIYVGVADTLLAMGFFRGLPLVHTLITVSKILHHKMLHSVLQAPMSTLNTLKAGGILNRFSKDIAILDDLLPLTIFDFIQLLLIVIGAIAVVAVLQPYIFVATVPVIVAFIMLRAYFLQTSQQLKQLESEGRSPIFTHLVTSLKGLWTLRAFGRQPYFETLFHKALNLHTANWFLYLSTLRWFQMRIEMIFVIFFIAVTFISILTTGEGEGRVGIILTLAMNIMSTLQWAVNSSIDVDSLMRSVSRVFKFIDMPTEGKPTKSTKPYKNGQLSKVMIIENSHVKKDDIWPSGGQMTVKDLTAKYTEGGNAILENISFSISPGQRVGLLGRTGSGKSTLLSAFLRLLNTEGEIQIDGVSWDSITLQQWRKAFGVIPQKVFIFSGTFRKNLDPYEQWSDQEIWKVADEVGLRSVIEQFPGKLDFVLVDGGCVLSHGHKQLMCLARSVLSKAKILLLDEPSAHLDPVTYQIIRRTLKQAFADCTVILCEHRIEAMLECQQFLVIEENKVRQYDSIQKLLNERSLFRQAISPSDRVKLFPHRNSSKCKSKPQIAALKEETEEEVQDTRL
Experiment: Cell Surface Expression-Horse Radish Peroxidase (CSE-HRP) Assay;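 as to EC50 (with co-corrector): co-corrector chromenyl benzoic acid corrector at 2 or 3 µM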;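 as to Maximum % activity (without co-corrector): % of on-plate positive control chromenyl benzoic acid corrector at 2 or 3 µM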
Assay type: cell-based
Conditions: for Emax: read-out: Maximum % activity (without co-corrector)
How it was run: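 Corrector compounds were given as 8-point 3-fold series from 20 or 30 μM, with or without a 2 μM co-corrector, for 18-24 h at 33 °C. Surface HRP was read by luminol luminescence as % of positive control; variable-Hill-slope sigmoidal fitting gave EC50 from triplicate plates.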

[1] = test compound with co-corrector, maximum at any tested concentration
[2] = test compound with co-corrector, read-out: EC50 (with co-corrector)
[3] = test compound without co-corrector, maximum at any tested concentration
[4] = test compound without co-corrector, read-out: EC50 (without co-corrector)
[5] = test compound alone, without co-corrector, read-out: EC50 (without co-corrector)
[6] = with co-corrector, maximum at any tested concentration
[7] = with co-corrector, read-out: EC50 (with co-corrector)
[8] = without co-corrector, maximum at any tested concentration

Row | Maximum % activity (with co-corrector) [1] | EC50 [2] [µM] | Emax [3] [%] | EC50 [4] [µM] | EC50 [5] [µM] | Maximum % activity (with co-corrector) [6] | EC50 [7] [µM] | Emax [8] [%] | SMILES | Emax [%]
1 | + (<150) | > 10 | < 50 | > 10 |  |  |  |  | CCc1cnc(N2CCN(C)CC2)c(C2(C(=O)NS(=O)(=O)c3cccc4ncccc34)CC2)c1 [GIII-33] | 
2 | + (<150) | > 10 | < 50 | > 10 |  |  |  |  | O=C(NS(=O)(=O)c1cccc2ncccc12)C1(c2cc(Cl)cnc2F)CC1 [GIII-34] | 
3 | + (<150) | > 10 | < 50 | > 10 |  |  |  |  | CC(C)Oc1ncc(CO)cc1C1(C(=O)NS(=O)(=O)c2cccc3ncccc23)CC1 [GIII-35] | 
4 | + (<150) | > 10 | < 50 | > 10 |  |  |  |  | CN1CCN(c2ncc(C3CC3)cc2C2(C(=O)NS(=O)(=O)c3cccc4[nH]ccc34)CC2)CC1 [GIII-36] | 
5 |  |  |  |  | 3 to 10 | +++ (≥350) | 3 to 10 | > 150 | COc1cccc(C2(C(=O)NS(=O)(=O)c3cccc4ccccc34)CC2)c1 [II-1] | 
6 |  |  |  |  | 3 to 10 | +++ (≥350) | 3 to 10 | > 150 | COc1cc(C2(C(=O)NS(=O)(=O)c3cccc4ccccc34)CC2)ccc1C [II-2] | 
7 |  |  |  |  | 3 to 10 | +++ (≥350) | < 3 | > 150 | O=C(NS(=O)(=O)c1cccc2ncccc12)C1(c2ccccc2OC(F)(F)F)CCC1 [II-3] | 
8 |  |  |  |  | 3 to 10 | +++ (≥350) | 3 to 10 | 50 to 150 | CCn1nc(C)cc1C1(C(=O)NS(=O)(=O)c2cccc3ccccc23)CC1 [II-4] | 
9 |  |  |  |  | 3 to 10 | ++ (≥150 and <350) | 3 to 10 | < 50 | CCn1nc(C2(C(=O)NS(=O)(=O)c3cccc4ccccc34)CC2)cc1C [II-5] | 
10 |  |  |  |  | 3 to 10 | +++ (≥350) | < 3 | > 150 | COc1ccccc1C1(C(=O)NS(=O)(=O)c2cccc3ncccc23)CCC1 [II-6] | 
11 |  |  |  |  | 3 to 10 | +++ (≥350) | < 3 | > 150 | COc1ncc(C(F)(F)F)cc1C1(C(=O)NS(=O)(=O)c2cccc3ncccc23)CC1 [II-7] | 
12 |  |  |  |  | 3 to 10 | +++ (≥350) | < 3 | > 150 | COc1ncc(C(F)(F)F)cc1C1(C(=O)NS(=O)(=O)c2cccc3c2CCCN3)CC1 [II-8] | 
13 |  |  |  |  | 3 to 10 | +++ (≥350) | < 3 | > 150 | COc1ncc(C(F)(F)F)cc1C1(C(=O)NS(=O)(=O)c2cccc3nc(C)ccc23)CC1 [II-9] | 
14 |  |  |  |  | 3 to 10 | +++ (≥350) | 3 to 10 | > 150 | COc1ncc(C)cc1C1(C(=O)NS(=O)(=O)c2cccc3c2CCCN3)CC1 [II-10] | 
15 |  |  |  |  | 3 to 10 | +++ (≥350) | < 3 | > 150 | COc1ncc(C2CCC2)cc1C1(C(=O)NS(=O)(=O)c2cccc3ncn(C)c23)CC1 [II-12] | 
16 |  |  |  |  | < 3 | +++ (≥350) | < 3 | > 150 | COc1ncc(C2CCC2)cc1C1(C(=O)NS(=O)(=O)c2cccc3cnn(C)c23)CC1 [II-13] | 
17 |  |  |  |  | < 3 | +++ (≥350) | < 3 | > 150 | COc1ncc(C2CCC2)cc1C1(C(=O)NS(=O)(=O)c2cccc3c2ccn3C)CC1 [II-14] | 
18 |  |  |  |  | 3 to 10 | +++ (≥350) | < 3 | > 150 | COc1ncc(C2CCC2)cc1C1(C(=O)NS(=O)(=O)c2cccc3[nH]ncc23)CC1 [II-15] | 
19 |  |  |  |  | 3 to 10 | +++ (≥350) | < 3 | > 150 | COc1ncc(C2CCC2)cc1C1(C(=O)NS(=O)(=O)c2cccc3ncc(C)n23)CC1 [II-16] | 
20 |  |  |  |  | < 3 | +++ (≥350) | < 3 | > 150 | COc1ncc(C(F)(F)F)cc1C1(C(=O)NS(=O)(=O)c2cccc3ccn(C)c23)CC1 [II-17] | 
21 |  |  |  |  | 3 to 10 | +++ (≥350) | < 3 | > 150 | COc1ncc(C(F)(F)F)cc1C1(C(=O)NS(=O)(=O)c2cccc3c2ccn3C)CC1 [II-18] | 

Row | Maximum % activity (with co-corrector) [1] | EC50 [2] [µM] | Emax [3] [%] | EC50 [4] [µM] | EC50 [5] [µM] | Maximum % activity (with co-corrector) [6] | EC50 [7] [µM] | Emax [8] [%] | SMILES | Emax [%]
22 |  |  |  |  | 3 to 10 | +++ (≥350) | 3 to 10 | 50 to 150 | COc1ncc(C(F)(F)F)cc1C1(C(=O)NS(=O)(=O)c2cccc3ncc(C)n23)CC1 [II-19] | 
23 |  |  |  |  | 3 to 10 | +++ (≥350) | < 3 | > 150 | COc1ccc(C(C)C)cc1C1(C(=O)NS(=O)(=O)c2cccc3c2CCCN3)CCC1 [II-20] | 
24 |  |  |  |  | < 3 | +++ (≥350) | < 3 | > 150 | COc1ccc(C2CCCC2)cc1C1(C(=O)NS(=O)(=O)c2cccc3c2CCCN3)CCC1 [II-21] | 
25 |  |  |  |  | 3 to 10 | +++ (≥350) | < 3 | > 150 | CCC(C)c1ccc(OC)c(C2(C(=O)NS(=O)(=O)c3cccc4c3CCCN4)CCC2)c1 (centres unmarked) [II-22] | 
26 |  |  |  |  | 3 to 10 | +++ (≥350) | 3 to 10 | 50 to 150 | COc1ccc(OC2CCOC2)cc1C1(C(=O)NS(=O)(=O)c2cccc3ncccc23)CC1 (centres unmarked) [II-23] | 
27 |  |  |  |  | < 3 | +++ (≥350) | < 3 | > 150 | O=C(NS(=O)(=O)c1cccc2ncccc12)C1(c2cc(OC(F)(F)F)ccc2Cl)CC1 [II-24] | 
28 |  |  |  |  | 3 to 10 | +++ (≥350) | < 3 | > 150 | O=C(NS(=O)(=O)c1cccc2c1CCCN2)C1(c2cc(OC(F)(F)F)ccc2Cl)CC1 [II-25] | 
29 |  |  |  |  | < 3 | +++ (≥350) | < 3 | > 150 | COc1ccc(C(C)C)cc1C1(C(=O)NS(=O)(=O)c2cccc3c2CCCN3)CC1 [II-26] | 
30 |  |  |  |  | < 3 | +++ (≥350) | < 3 | > 150 | COc1cc(F)c(C(C)C)cc1C1(C(=O)NS(=O)(=O)c2cccc3c2CCCN3)CC1 [II-27] | 
31 |  |  |  |  | < 3 | +++ (≥350) | < 3 | > 150 | COc1ccc(C(F)(F)F)cc1C1(C(=O)NS(=O)(=O)c2cccc3c2CCCN3)CC1 [II-28] | 
32 |  |  |  |  | 3 to 10 | +++ (≥350) | < 3 | > 150 | COC(=O)C1(c2ccc(OC)c(C3(C(=O)NS(=O)(=O)c4cccc5ncccc45)CC3)c2)CC1 [II-30] | 
33 |  |  |  |  | 3 to 10 | +++ (≥350) | < 3 | > 150 | COc1ncc(C2CCC2)c(C)c1C1(C(=O)NS(=O)(=O)c2cccc3nc(C)ccc23)CC1 [II-33] | 
34 |  |  |  |  | 3 to 10 | +++ (≥350) | < 3 | > 150 | COc1cccc(C)c1C1(C(=O)NS(=O)(=O)c2cccc3ncccc23)CC1 [II-35] | 
35 |  |  |  |  | < 3 | +++ (≥350) | < 3 | > 150 | COc1ccc(C)c(C)c1C1(C(=O)NS(=O)(=O)c2cccc3c2CCCN3)CC1 [II-36] | 
36 |  |  |  |  | < 3 | +++ (≥350) | < 3 | > 150 | COc1ccc(C2CC2)c(C)c1C1(C(=O)NS(=O)(=O)c2cccc3c2CCCN3)CC1 [II-37] | 
37 |  |  |  |  | 3 to 10 | +++ (≥350) | < 3 | > 150 | COc1ncc(C2CCC2)c(C)c1C1(C(=O)NS(=O)(=O)c2cccc3c2CCCN3)CC1 [II-38] | 
38 |  |  |  |  | < 3 | +++ (≥350) | < 3 | 50 to 150 | COc1ccc(C)c(OC)c1C1(C(=O)NS(=O)(=O)c2cccc3ccc(C)nc23)CC1 [II-39] | 
39 |  |  |  |  | 3 to 10 | +++ (≥350) | 3 to 10 | > 150 | COc1ccc(C2CCC2)cc1C1(C(=O)NS(=O)(=O)c2cccc3c2CCN3C)CC1 [II-40] | 
40 |  |  |  |  | 3 to 10 | +++ (≥350) | < 3 | 50 to 150 | COc1ncc(C2CCC2)c(C)c1C1(C(=O)NS(=O)(=O)c2cccc3c2ccn3C)CC1 [II-41] | 
41 |  |  |  |  | 3 to 10 | +++ (≥350) | < 3 | 50 to 150 | COc1ncc(C2CCC2)c(C)c1C1(C(=O)NS(=O)(=O)c2cccc3ccn(C)c23)CC1 [II-42] | 
42 |  |  |  |  | < 3 | +++ (≥350) | < 3 | 50 to 150 | COc1ncc(C2CCC2)c(C)c1C1(C(=O)NS(=O)(=O)c2cccc3cnn(C)c23)CC1 [II-43] | 

Row | SMILES | Maximum % activity (with co-corrector) [1] | EC50 [2] [µM] | Emax [3] [%] | EC50 [4] [µM] | EC50 [5] [µM] | Maximum % activity (with co-corrector) [6] | EC50 [7] [µM] | Emax [8] [%] | Emax [%]
43 | COC(=O)c1ccc(OC)c(C2(C(=O)NS(=O)(=O)c3cccc4ncccc34)CC2)c1 [II-31] |  |  |  |  | 3 to 10 | +++ (≥350) | < 3 |  | > 150
44 | COC(=O)c1ccc(OC)c(C2(C(=O)NS(=O)(=O)c3cccc4ccccc34)CC2)c1 [II-32] |  |  |  |  | 3 to 10 | +++ (≥350) | < 3 |  | > 150
